Type in all cases: in vivo
Test [1] has as its system Erysiphe graminis tritici (powdery mildew). The test is described as follows: Test 1 greenhouse foliar spray screen, powdery mildew on wheat. The following applies: disease control rating, foliar spray on wheat, 400 ppm (+++ at 100 ppm).
Test [2] has as its system Pyricularia oryzae (rice blast). The test is described as follows: whole plant or invertebrate. The following applies: disease control rating, foliar spray on rice, 400 ppm (+++ at 100 ppm).
In test [3] the test system is Puccinia recondita tritici (leaf rust). The test is described as follows: Test 1 greenhouse foliar spray screen, leaf rust on wheat. The settings on record: disease control rating, foliar spray on wheat, 400 ppm (+++ at 100 ppm).
The test system of test [4] is Botrytis cinerea (gray mold). The test is described as follows: Test 1 greenhouse foliar spray screen, gray mold on grape berries. The following applies: disease control rating, spray on grape berries, 400 ppm (+++ at 100 ppm).
The subject of test [5] is Pseudoperonospora cubensis (downy mildew). The test is described as follows: Test 1 greenhouse foliar spray screen, downy mildew on squash. The settings on record: disease control rating, foliar spray on squash, 400 ppm (+++ at 100 ppm).
The test system of test [6] is southern armyworm (Spodopetra eridania Cramer). The test is described as follows: Mite/insect screen, SAW. The following applies: Spodoptera eridania, percent mortality, SAW, read-out: SAW RESULTS %; for mortality at 400 ppm: SM & MA RATE 400 PPM; for mortality at 200 ppm: SM & MA RATE 200 PPM. In outline:
(§1)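 Percent mortality was scored after standard exposure periods, following spraying of leaves to runoff (both surfaces, 10 psi, 1 h drying) with water dilutions of compound in emulsifier-containing acetone/alcohol (50:50). Armyworms received excised treated leaves in dishes.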

Test [7] concerns Twospotted spider mites (Tetranychus urticae Koch). The test is described as follows: Mite/insect screen, SM. The settings on record: for mortality at 400 ppm / mortality at 200 ppm: Tetranychus urticae, percent mortality, SAW, read-out: SM RESULTS %; for mortality at 400 ppm: SM & MA RATE 400 PPM; for mortality at 200 ppm: SM & MA RATE 200 PPM. The method, boiled down: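 Read-out: percent mortality after standard exposure periods. Test solutions were water dilutions of compound dissolved in acetone/alcohol (50:50) with emulsifier blends; leaves were sprayed to runoff on both surfaces and air-dried for one hour before exposure.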

In test [8] the test system is melon aphids (Aphis gossypii Glover). The test is described as follows: Mite/insect screen, MA. The settings on record: Aphis gossypii, percent mortality, SAW, read-out: MA RESULTS %; for mortality at 400 ppm: SM & MA RATE 400 PPM; for mortality at 200 ppm: SM & MA RATE 200 PPM. The method, boiled down: as §1
In another test the test system is corn rootworm. The test is described as follows: Mite/insect screen, CRW. The following applies: percent mortality, read-out: CRW RESULTS %; for mortality at 24 ppm: CRW RATE 24.00 PPM; for mortality at 12 ppm: CRW RATE 12.00 PPM. In outline: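 Corn rootworm mortality (%) was evaluated following standard exposure times. Test material was emulsified by dissolution in acetone/alcohol (1:1) containing sulfonate/nonionic emulsifier blends TOXIMUL R (23 g/L) and TOXIMUL S (13 g/L), and water-diluted to the indicated doses.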

In the case of `Fc1cccc2c(NCCCc3ccc(-c4ccccc4)cc3)ccnc12` [Example 137, N-[3-(1,1'-biphenyl)-4-ylpropyl]-8-fluoro-4-quinolinamine], the “POWD MDEW” value in [1] is listed as “+ (20-89% control at 400 ppm)”. For the same molecule, in test [2], the “RICE BLAST” value was “+++ (90-100% control at 100 ppm)”. The “LEAF RUST” value in test [3] is on record as “+ (20-89% control at 400 ppm)”. Besides, the “GRAY MOLD” value in test [4] is listed as “- (0-19% control at 400 ppm)”. Besides, in test [5], the “DOWN MDEW” value was “+++ (90-100% control at 100 ppm)”. The mortality at 400 ppm in [6] was determined as 100%; in test [7], 80%; in test [8], 80%. In test [7] (summary statement in the description), the activity as miticides entry was “particularly excellent activity”. Further, the mortality at 24 ppm in the test on corn rootworm worked out at 0%.
Regarding `CC(CCc1ccccc1)Nc1ccnc2c(F)cccc12` (stereo not drawn) [Example 138, 8-fluoro-N-(1-methyl-3-phenylpropyl)-4-quinolinamine], the “POWD MDEW” value in [1] was “- (0-19% control at 400 ppm)”. In addition, the “RICE BLAST” value in [2] was “+ (20-89% control at 400 ppm)”. The “LEAF RUST” value in test [3] is given as “+ (20-89% control at 400 ppm)”. The “GRAY MOLD” value in test [4] was “- (0-19% control at 400 ppm)”. Moreover, the “DOWN MDEW” value in test [5] is listed as “+++ (90-100% control at 100 ppm)”. Further, the mortality at 400 ppm in test [6], in test [7] and in [8] was 0% in each case. The mortality at 24 ppm in the test with corn rootworm turned out to be 0%.
Take `CC(=O)N(CCCCc1ccc(Cl)cc1)c1ccnc2c(F)cccc12` [Example 141, N-[4-(4-chlorophenyl)butyl]-N-(8-fluoro-4-quinolinyl)acetamide]: in test [1], the “POWD MDEW” value was “- (0-19% control at 400 ppm)”. Besides, the “RICE BLAST” value in test [2] was “++ (90-100% control at 400 ppm)”. For the same molecule, in [3], the “LEAF RUST” value was “+ (20-89% control at 400 ppm)”. In addition, in test [4], the “GRAY MOLD” value is on record as “- (0-19% control at 400 ppm)”. For the same molecule, in [5], the “DOWN MDEW” value was “+ (20-89% control at 400 ppm)”. Besides, in [6], the mortality at 200 ppm turned out to be 0% and the mortality at 400 ppm turned out to be 0%. Besides, in [7], the mortality at 200 ppm worked out at 0% and the mortality at 400 ppm is 0%. Besides, in [8], the mortality at 200 ppm was determined as 0% and the mortality at 400 ppm was 0%. In addition, in the test on corn rootworm, the mortality at 12 ppm was determined as 0% and the mortality at 24 ppm stood at 0%.
On to `Cc1ccc(C)c2c(NCCC3=CCCCC3)ccnc12` [Example 142, N-[2-(1-cyclohexenyl)ethyl]-5,8-dimethyl-4-quinolinamine], for which, in test [1], the “POWD MDEW” value is “- (0-19% control at 400 ppm)”. The “RICE BLAST” value in test [2] was “++ (90-100% control at 400 ppm)”. The “LEAF RUST” value in test [3] is “++ (90-100% control at 400 ppm)”. Also, the “GRAY MOLD” value in [4] was “- (0-19% control at 400 ppm)”. In addition, the “DOWN MDEW” value in test [5] is reported as “+++ (90-100% control at 100 ppm)”. Moreover, in test [6], the mortality at 200 ppm was 0% and the mortality at 400 ppm came out at 0%. In addition, in test [7], the mortality at 200 ppm stood at 0% and the mortality at 400 ppm is 0%. In test [8], the mortality at 200 ppm worked out at 0% and the mortality at 400 ppm is 0%. Besides, in the test on corn rootworm, the mortality at 12 ppm came out at 0% and the mortality at 24 ppm amounted to 0%.
`CC(=O)N(CCC1=CCCCC1)c1ccnc2ccc(F)cc12` [Example 146, N-[2-(1-cyclohexenyl)ethyl]-N-(6-fluoro-4-quinolinyl)acetamide]: the “POWD MDEW” value in test [1] is “- (0-19% control at 400 ppm)”. For the same molecule, in [2], the “RICE BLAST” value was “- (0-19% control at 400 ppm)”. The “LEAF RUST” value in test [3] is “- (0-19% control at 400 ppm)”. For the same molecule, the “GRAY MOLD” value in test [4] is “- (0-19% control at 400 ppm)”. Further, the “DOWN MDEW” value in test [5] is listed as “+ (20-89% control at 400 ppm)”. The mortality at 200 ppm in test [6], in [7] and in test [8] was 0% in each case. Also, the mortality at 400 ppm in test [6], in test [7] and in test [8] was 0% throughout. Also, in the test with corn rootworm, the mortality at 12 ppm was 0%. Also, in the test with corn rootworm, the mortality at 24 ppm amounted to 0%.
Consider `OC(CNc1ccnc2c(F)cccc12)c1ccc2ccccc2c1` (stereo not drawn) [Example 157, α-[[(8-fluoro-4-quinolinyl)amino]methyl]-2-naphthalenemethanol], for which the “POWD MDEW” value in test [1] is reported as “- (0-19% control at 400 ppm)”. Besides, the “RICE BLAST” value in test [2] is “++ (90-100% control at 400 ppm)”. In [3], the “LEAF RUST” value is on record as “++ (90-100% control at 400 ppm)”. For the same molecule, the “GRAY MOLD” value in [4] was “- (0-19% control at 400 ppm)”. For the same molecule, the “DOWN MDEW” value in test [5] is given as “+++ (90-100% control at 100 ppm)”. In addition, the mortality at 400 ppm in [6] worked out at 100%; in test [7], 80%; in test [8] it was 0%. For the same molecule, the mortality at 24 ppm in the test with corn rootworm is 0%.
As to `CC(=O)N(CCC1=CCCCC1)c1ccnc2c(C)ccc(C)c12` [Example 160, N-[2-(1-cyclohexenyl)ethyl]-N-(5,8-dimethyl-4-quinolinyl)acetamide], the “POWD MDEW” value in [1] is listed as “- (0-19% control at 400 ppm)”. In addition, the “RICE BLAST” value in [2] was “+ (20-89% control at 400 ppm)”. Moreover, in [3], the “LEAF RUST” value is given as “- (0-19% control at 400 ppm)”. In addition, the “GRAY MOLD” value in test [4] is listed as “- (0-19% control at 400 ppm)”. Also, the “DOWN MDEW” value in [5] is given as “- (0-19% control at 400 ppm)”. Moreover, in test [6], the mortality at 200 ppm is 0% and the mortality at 400 ppm came out at 0%. Moreover, in test [7], the mortality at 200 ppm worked out at 0% and the mortality at 400 ppm was 0%. Further, in test [8], the mortality at 200 ppm was 0% and the mortality at 400 ppm was determined as 0%. In the test with corn rootworm, the mortality at 12 ppm stood at 0% and the mortality at 24 ppm is 0%.
Consider `CC(=O)N(CCC1CCCCC1)c1ccnc2c(F)cccc12` [Example 161, N-(2-cyclohexylethyl)-N-(8-fluoro-4-quinolinyl)acetamide], for which, in test [1], the “POWD MDEW” value is on record as “+ (20-89% control at 400 ppm)”. In addition, the “RICE BLAST” value in test [2] is “+ (20-89% control at 400 ppm)”. The “LEAF RUST” value in test [3] is “- (0-19% control at 400 ppm)”. Also, in test [4], the “GRAY MOLD” value is “- (0-19% control at 400 ppm)”. Also, the “DOWN MDEW” value in [5] was “+ (20-89% control at 400 ppm)”. In addition, the mortality at 200 ppm in test [6], in [7] and in test [8] was 0% throughout. In addition, the mortality at 400 ppm amounted to 0% in test [6], 0% in test [7] and 80% in [8]. Besides, the mortality at 12 ppm in the test on corn rootworm was found to be 0%. In addition, in the test with corn rootworm, the mortality at 24 ppm is 40%.

The values are drawn from patent publication EP0326331B1, “Substituted quinolines and cinnolines” (Dow AgroSciences LLC, priority 1988, dated 1989).
